Results published in patent publication US9492450B2, “Inhibition of dynamin related protein 1 to promote cell death” (University of Pittsburgh—of the Commonwealth System of …, priority 2011, dated 2016).

How the values were obtained:
MDA-MB-231 cells = assay: Cisplatin cytotoxicity under Drp1 inhibition (subG1, LIVE/DEAD kit, caspase Western blot); format: cell-based, human
Description: To test the effect of Drp-1 inhibition on the effectiveness of cisplatin, in a first series of experiments, MDA-MB-231 cells were transfected with control or Drp1 siRNA, and 48 hours later were then treated with 40 μM of cisplatin for a 24 hour period. The effect of different concentrations of cisplatin on the Drp1 knockdown cells is shown in FIG. 13A, where the subG1 portion in the cell cycle profile indicates cytotoxicity. In a second series of experiments, a LIVE/DEAD Viability/Cytotoxicity kit (Invitrogen) was used to evaluate the effect of inhibition of Drp1 by mdivi-1 on cisplatin cytotoxicity. In this test, the percentage of lice and dead cells are determined simultaneously with two probes, calcein AM and ethidium homodimer (EthD-1). […] EthD-1 is excluded by the intact plasma membrane of live cells but is able to enter cells with damaged membranes and undergo a 40-fold enhancement of red fluorescence upon binding to nucleic acids. […] Calcein AM and EthD-1 were added to the cell suspension at final concentrations of 0.1 μM and 8 μM, respectively, Fluorescence intensity was analyzed on a CyAn ADP Analyzer (Beckman Coulter, Brea, Calif.) and the results were analyzed using Summit software. The live-cell population that was positively stained with calcein was detected in the bottom right region and indicated with an arrow. […]

[1] = target: T1, Dnm1, the yeast ortholog of Drp1 (Saccharomyces cerevisiae, UniProt P54861); settings: US2005/0038051 and US2008/0287473; cited from earlier work
T1 sequence (P54861 1-757): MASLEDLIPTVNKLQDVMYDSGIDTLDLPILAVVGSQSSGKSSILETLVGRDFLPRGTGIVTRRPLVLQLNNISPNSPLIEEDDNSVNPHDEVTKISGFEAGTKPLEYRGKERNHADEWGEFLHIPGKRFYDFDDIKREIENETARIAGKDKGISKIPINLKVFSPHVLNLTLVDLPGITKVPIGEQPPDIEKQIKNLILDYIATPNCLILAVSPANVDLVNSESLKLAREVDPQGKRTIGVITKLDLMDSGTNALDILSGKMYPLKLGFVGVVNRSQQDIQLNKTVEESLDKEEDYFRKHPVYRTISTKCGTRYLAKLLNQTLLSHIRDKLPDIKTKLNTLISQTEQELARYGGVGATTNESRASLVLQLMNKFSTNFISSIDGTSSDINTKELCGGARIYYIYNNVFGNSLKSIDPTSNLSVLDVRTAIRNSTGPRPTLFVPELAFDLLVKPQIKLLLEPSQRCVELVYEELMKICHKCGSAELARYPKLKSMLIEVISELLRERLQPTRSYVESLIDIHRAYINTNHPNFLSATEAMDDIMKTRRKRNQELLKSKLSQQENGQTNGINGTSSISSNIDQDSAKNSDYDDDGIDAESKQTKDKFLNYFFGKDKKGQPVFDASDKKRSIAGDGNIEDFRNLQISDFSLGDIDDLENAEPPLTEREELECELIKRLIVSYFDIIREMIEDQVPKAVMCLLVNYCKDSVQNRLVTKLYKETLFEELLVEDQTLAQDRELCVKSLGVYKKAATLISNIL

COc1cc(-n2c(=S)[nH]c3ccccc3c2=O)c(Cl)cc1Cl [mdivi-1]
number of dead cells after cisplatin, coadministered with mdivi-1 (MDA-MB-231 cells; 50 μM mdivi-1, 12 hours, LIVE/DEAD kit): increased | number of apoptotic cells after cisplatin, coadministered with mdivi-1 (MDA-MB-231 cells; caspase activation by Western Blot): increased | inhibition of Dnm1 [1]: selective inhibitor
